According to ChEMBL document CHEMBL4266024, “Phytochemical Study of Senecio volckmannii Assisted by CASE-3D with Residual Dipolar Couplings and Isotropic 1H/13C NMR Chemical Shifts” (2018):

Columns and labels:
Assay type in all cases: functional
T47D = assay: Growth inhibition of human T47D cells after 48 hrs by sulforhodamine B assay
A549 = assay: Growth inhibition of human A549 cells after 48 hrs by sulforhodamine B assay; settings: A549, 48 h
WiDr = assay: Growth inhibition of human WiDr cells after 48 hrs by sulforhodamine B assay
HeLa = assay: Growth inhibition of human HeLa cells after 48 hrs by sulforhodamine B assay
HBL-100 = assay: Growth inhibition of human HBL100 cells after 48 hrs by sulforhodamine B assay; settings: HBL-100, 48 h
SW1573 = assay: Growth inhibition of human SW1573 cells after 48 hrs by sulforhodamine B assay; settings: SW1573, 48 h

Measured: GI50

CC(C)=C1C[C@@]2(C)C(=CC1=O)CCC[C@@H]2C
> 10 µM: all assays above

C[C@H]1CCCC2=CC(=O)C(C(C)(C)O)=C[C@@]21C
> 10 µM: all assays above

CC1=C2C[C@@]3(C)[C@H](C[C@@]2(O)OC1=O)C(=O)CC[C@@H]3C
> 10 µM: all assays above

CC(C)=C1C[C@@]2(C)C(=CC1=O)[C@@H](O)CC[C@@H]2C
> 10 µM: all assays above

C[C@H]1CCCC2=CC(=O)[C@H](C(C)(C)O)C[C@@]21C
> 10 µM: all assays above

CC(C)=C1C[C@@]2(C)C(=CC1=O)[C@H](O)CC[C@@H]2C
> 10 µM: all assays above

C[C@H]1CC[C@@H](O)C2=CC(=O)C(C(C)(C)O)=C[C@@]21C (relative stereo)
> 10 µM: all assays above

CC(=O)C1=C[C@@]2(C)C(=CC1=O)CCC[C@@H]2C (relative stereo)
> 10 µM: all assays above

CC(C)=C1C[C@@]2(C)[C@H](CCC(=O)[C@@H]2C)CC1=O (relative stereo)
> 10 µM: all assays above
